Reference: US4746736A, “Carbapenem antibiotics” (priority 1986, dated 1988)
In brackets after ≈: the same amount, converted by molar mass. Like-named read-outs stand apart in the source and are kept apart here.

Tests used:
Type in all cases: cell-based
[1] = tested on: E. coli A20341-1; assay: In vitro MIC by tube dilution, E. coli A20341-1; conditions: Escherichia coli, A203411, read-out: MIC
[2] = tested on: P. mirabilis A-9900; assay: In vitro MIC by tube dilution, P. mirabilis A-9900; conditions: Proteus mirabilis, A9900, P. mirabilis A-9900; read-out: MIC
[3] = tested on: P. rettgeri A22424; assay: In vitro MIC by tube dilution, P. rettgeri A22424; conditions: Providencia rettgeri, A22424, P. rettgeri A22424; read-out: MIC
[4] = tested on: P. aeruginosa A21213; assay: In vitro MIC by tube dilution, P. aeruginosa A21213; conditions: Pseudomonas aeruginosa, A21213, P. aeruginosa A21213; read-out: MIC
[5] = tested on: E. cloacae A-9656; assay: In vitro MIC by tube dilution, E. cloacae A-9656; conditions: Enterobacter cloacae, A9656, E. cloacae A-9656; read-out: MIC
[6] = tested on: E. cloacae A-9659; assay: In vitro MIC by tube dilution, E. cloacae A-9659; conditions: Enterobacter cloacae, A9659, E. cloacae A-9659; read-out: MIC
[7] = tested on: S. pyogenes A9604; assay: In vitro MIC by tube dilution, S. pyogenes A9604; conditions: Streptococcus pyogenes, A9604, S. pyogenes A-9604; read-out: MIC
[8] = tested on: S. marcescens A20019; assay: In vitro MIC by tube dilution, S. marcescens A20019; conditions: Serratia marcescens, read-out: MIC
[9] = tested on: S. aureus A-9606 (Pen-res.); assay: In vitro MIC by tube dilution, S. aureus A-9606 (Pen-res.); conditions: Staphylococcus aureus, S. aureus A-9606 (Pen-res); read-out: MIC
[10] = tested on: S. aureus A-9537; assay: In vitro MIC by tube dilution, S. aureus A-9537; conditions: Staphylococcus aureus, read-out: MIC
[11] = tested on: K. pneumoniae A20468; assay: In vitro MIC by tube dilution, K. pneumoniae A20468; conditions: Klebsiella pneumoniae, read-out: MIC
[12] = tested on: P. morganii A15153; assay: In vitro MIC by tube dilution, P. morganii (M. morganii) A15153; conditions: Morganella morganii, read-out: MIC
[13] = tested on: E. coli A15119; assay: In vitro MIC by tube dilution, E. coli A15119; conditions: Escherichia coli, read-out: MIC
[14] = tested on: K. pneumoniae A-9664; assay: In vitro MIC by tube dilution, K. pneumoniae A-9664; conditions: Klebsiella pneumoniae, A9664, read-out: MIC
[15] = tested on: S. pneumoniae A-9585; assay: In vitro MIC by tube dilution, S. pneumoniae A-9585; conditions: Streptococcus pneumoniae, A9585, S. pneumoniae A-9585; read-out: MIC
[16] = tested on: P. aeruginosa A-9843A; assay: In vitro MIC by tube dilution, P. aeruginosa A-9843A; conditions: Pseudomonas aeruginosa, A9843A, P. aeruginosa A-9843a; read-out: MIC
[17] = tested on: S. faecalis A20688; assay: In vitro MIC by tube dilution, S. faecalis A20688; conditions: Enterococcus faecalis, A20688, S. faecalis A20688; read-out: MIC
[18] = A9537, S. aureus A-9537 +50% serum
[19] = A9537, S. aureus A-9537, no serum

Structure (SMILES)	MIC [1] [µg/mL]	MIC [2] [µg/mL]	MIC [3] [µg/mL]	MIC [4] [µg/mL]	MIC [5] [µg/mL]	MIC [6] [µg/mL]	MIC [7] [µg/mL]	MIC [8] [µg/mL]	MIC [9] [µg/mL]	MIC [10, 18] [µg/mL]	MIC [10, 19] [µg/mL]	MIC ([11]; A20468, K. pneumoniae A20468) [µg/mL]	MIC ([12]; A15153, M. morganii A15153) [µg/mL]	MIC ([13]; A15119, E. coli A15119) [µg/mL]	MIC [14] [µg/mL]	MIC [15] [µg/mL]	MIC [16] [µg/mL]	MIC ([13]; E. coli A15119) [µg/mL]	MIC [17] [µg/mL]	MIC ([11]; K. pneumoniae A20468) [µg/mL]	further results
C[C@@H](O)[C@H]1C(=O)N2C(C(=O)[O-])=C(SCc3scc[n+]3C)C[C@H]12 [Example 11, 3-[2-(N-Methylthiazolium)methylthio]-6α-[1-(R)-hydroxyethyl]-7-oxo-1-azabicyclo(3.2.0)hept-2-ene-2-carboxylate]	0.03 (≈ 0.0881 µM)	0.03 (≈ 0.0881 µM)	0.13 (≈ 0.382 µM)	0.13 (≈ 0.382 µM)	0.13 (≈ 0.382 µM)	0.06 (≈ 0.176 µM)	0.002 (≈ 0.00587 µM)	0.06 (≈ 0.176 µM)	0.016 (≈ 0.047 µM)	0.016 (≈ 0.047 µM)	0.004 (≈ 0.0117 µM)	0.13 (≈ 0.382 µM)	0.06 (≈ 0.176 µM)	0.016 (≈ 0.047 µM)	0.03 (≈ 0.0881 µM)	0.002 (≈ 0.00587 µM)	–	–	–	–	–
C[C@@H](O)[C@H]1C(=O)N2C(C(=O)[O-])=C(SCc3cs[n+](C)n3)C[C@H]12 [Example 16, (5R,6S) 6-(1R-hydroxyethyl)-3-(2-methyl-1,2,3-thiadiazolium-4-ylmethylthio)-7-oxo-1-azabicyclo[3.2.0]hept-2-ene-2-carboxylate]	0.016 (≈ 0.0469 µM)	0.06 (≈ 0.176 µM)	–	–	0.06 (≈ 0.176 µM)	0.06 (≈ 0.176 µM)	0.002 (≈ 0.00586 µM)	0.06 (≈ 0.176 µM)	0.016 (≈ 0.0469 µM)	0.03 (≈ 0.0879 µM)	0.008 (≈ 0.0234 µM)	0.06 (≈ 0.176 µM)	–	0.016 (≈ 0.0469 µM)	0.06 (≈ 0.176 µM)	0.002 (≈ 0.00586 µM)	0.25 (≈ 0.732 µM)	–	–	–	–
C[C@@H](O)[C@H]1C(=O)N2C(C(=O)[O-])=C(SCc3n(C)nc[n+]3C)C[C@H]12 [Example 19, 3-[5-(1,4-Dimethyl-1,2,4-triazolium)methanethio]-6α-[1-(R)-hydroxyethyl]-7-oxo-1-azabicyclo[3.2.0]hept-2-ene-2-carboxylate]	0.008 (≈ 0.0236 µM)	0.03 (≈ 0.0887 µM)	0.13 (≈ 0.384 µM)	0.06 (≈ 0.177 µM)	0.03 (≈ 0.0887 µM)	0.03 (≈ 0.0887 µM)	0.002 (≈ 0.00591 µM)	0.03 (≈ 0.0887 µM)	0.016 (≈ 0.0473 µM)	–	0.004 (≈ 0.0118 µM)	0.06 (≈ 0.177 µM)	0.06 (≈ 0.177 µM)	–	0.03 (≈ 0.0887 µM)	0.002 (≈ 0.00591 µM)	–	0.008 (≈ 0.0236 µM)	–	–	–
C[C@@H](O)[C@H]1C(=O)N2C(C(=O)[O-])=C(SCc3cccc[n+]3C)C[C@H]12 [Example 4, 3-(N-Methylpyridine-2-yl-methanethio)-6α-[1-(R)-hydroxyethyl]-7-oxo-1-azabicyclo(3.2.0)hept-2-ene-2-carboxylate]	0.016 (≈ 0.0478 µM)	–	–	–	–	–	–	–	0.016 (≈ 0.0478 µM)	–	0.008 (≈ 0.0239 µM)	–	0.016 (≈ 0.0478 µM)	0.016 (≈ 0.0478 µM)	–	0.002 (≈ 0.00598 µM)	2 (≈ 5.98 µM)	–	–	–	–
Cc1c(CSC2=C(C(=O)[O-])N3C(=O)[C@H]([C@@H](C)O)[C@H]3C2)ccc[n+]1C [Example 14, 3-(2-Methyl-N-methylpyridine-3-yl-methanethio)-6α-[1-(R)-hydroxyethyl]-7-oxo-1-azabicyclo(3.2.0)hept-2-ene-2-carboxylate]	0.008 (≈ 0.023 µM)	0.016 (≈ 0.0459 µM)	0.06 (≈ 0.172 µM)	–	0.03 (≈ 0.0861 µM)	0.03 (≈ 0.0861 µM)	–	0.016 (≈ 0.0459 µM)	0.016 (≈ 0.0459 µM)	0.03 (≈ 0.0861 µM)	0.008 (≈ 0.023 µM)	–	–	–	0.03 (≈ 0.0861 µM)	–	8 (≈ 23 µM)	0.008 (≈ 0.023 µM)	0.13 (≈ 0.373 µM)	0.03 (≈ 0.0861 µM)	MIC ([12]; M. morganii A15153): 0.03 µg/mL (≈ 0.0861 µM)
C[C@@H](O)[C@H]1C(=O)N2C(C(=O)[O-])=C(SCc3n(C)cc[n+]3C)C[C@H]12 [Example 9, 3-(N,N'-Dimethylimidazole-2-yl-methanethio)-6α-[1-(R)-hydroxyethyl]-7-oxo-1-azabicyclo(3.2.0)hept-2-ene-2-carboxylate]	0.004 (≈ 0.0119 µM)	0.016 (≈ 0.0474 µM)	0.06 (≈ 0.178 µM)	0.13 (≈ 0.385 µM)	0.03 (≈ 0.0889 µM)	0.03 (≈ 0.0889 µM)	–	0.016 (≈ 0.0474 µM)	–	–	0.004 (≈ 0.0119 µM)	–	–	–	0.016 (≈ 0.0474 µM)	–	2 (≈ 5.93 µM)	0.008 (≈ 0.0237 µM)	0.13 (≈ 0.385 µM)	0.03 (≈ 0.0889 µM)	MIC ([12]; M. morganii A15153): 0.03 µg/mL (≈ 0.0889 µM)
